In test [1] the target is acetylcholine esterase (eeAChE, EC 3.1.1.7) (Electrophorus electricus, UniProt O42275). Nature of the test: Acetylcholine esterase inhibition activity (ACh quantification colorimetric assay kit). Particulars: read-out: Residual activity of acetylcholine esterase (%); for remaining activity at 10 µM: 10 μM compound; for remaining activity at 30 µM: 30 μM compound. The class given is biochemical. The method, then: Particularly, a quantitative kit (ACh quantification colorimetric assay kit from BioVision) was prepared in order to quantify acetylcholine esterase (eeAChE, EC 3.1.1.7) and acetylcholine chloride (ACh) of Electrophorus electricus and acetylcholine. To measure the enzyme inhibition activity of the compound of the example of the invention, the following experiment was performed based on the standardized method of the manufacturer of the Ach kit (Draczkowski, P. et al. Bba-Gen Subjects 1860, 967-974, doi:10.1016/j.bbagen.2015.11.006 (2016)).
Chain of acetylcholine esterase (eeAChE, EC 3.1.1.7) (O42275 24-633): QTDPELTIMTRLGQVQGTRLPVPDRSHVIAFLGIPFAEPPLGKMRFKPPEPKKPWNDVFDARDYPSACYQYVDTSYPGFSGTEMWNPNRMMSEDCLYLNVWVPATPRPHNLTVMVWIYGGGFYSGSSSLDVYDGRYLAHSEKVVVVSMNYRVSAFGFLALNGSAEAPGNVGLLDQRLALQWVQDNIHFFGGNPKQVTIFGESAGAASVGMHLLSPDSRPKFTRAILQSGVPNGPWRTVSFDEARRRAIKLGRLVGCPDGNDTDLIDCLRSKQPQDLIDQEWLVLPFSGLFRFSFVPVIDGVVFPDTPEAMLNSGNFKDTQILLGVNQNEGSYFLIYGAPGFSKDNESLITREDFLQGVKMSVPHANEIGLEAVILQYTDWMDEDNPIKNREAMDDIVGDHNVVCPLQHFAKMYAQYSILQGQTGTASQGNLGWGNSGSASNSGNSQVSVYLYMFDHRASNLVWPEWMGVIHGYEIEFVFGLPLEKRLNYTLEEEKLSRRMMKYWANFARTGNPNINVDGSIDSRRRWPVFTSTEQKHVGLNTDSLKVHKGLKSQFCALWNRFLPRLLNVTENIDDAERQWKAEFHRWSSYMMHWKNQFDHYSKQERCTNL
First, acetylcholine esterase (eeAChE, EC 3.1.1.7) was dissolved in […] Tris-HCL buffer at the concentration of 5 μM. Acetylcholine chloride was dissolved in 20 mM Tris-HCL buffer, resulting in the preparation of a Tris-HCL aqueous solution containing 10 μM acetylcholine chloride. The compound of the example was prepared in different concentrations of 10 μM and 30 μM. The prepared acetylcholine chloride solution and the compound solution were mixed in 20 μM acetylcholine esterase. 20 minutes and 30 minutes after mixing, the color change of the quantitative kit was measured at 570 nm in order to evaluate the inhibitory effect of the compound particularly to inhibit acetylcholine esterase that decomposes acetylcholine into choline.
All the experiments were repeated at least twice, from which the mean values and the standard deviations were calculated.

For test [2], the system named is murine microglial BV-2 cells. Nature of the test: Quantification of nitrite generation in LPS treated nerve cell line. Format: cell-based. The settings on record: Mus musculus; LPS treated BV-2 cells; FIG. 5; read-out: IC50 for nitric oxide. As to the method: Particularly, in order to quantify the nitrite generation in the LPS treated nerve cell line, nitrite generated from nitric oxide secreted therein was quantified. With the quantified nitrite, the inhibition of microglial activation and the neuron protection effect thereby were examined. The nerve cell line (BV2) was treated with LPS ([…]), and then treated with the compound of the present invention at different concentrations of 0.01 μM, 0.1 μM and 1 μM, or 1 μM, 5 μM and 10 μM (Con: DMSO treated group (not treated with the compound of the invention and LPS), LPS: LPS treated group ([…])).
Further, IC50 was calculated from the quantification of nitric oxide measured by concentration gradient in FIGS. 1 and 3, and the results are shown in FIG. 5.

With `CC1COC2(C=CC(=O)C=C2)N(c2ccccc2)C1=O` (stereo not drawn) [Example 2, 3-methyl-5-phenyl-1-oxa-5-azaspiro[5,5]undeca-7,10-diene-4,9-dione], in test [1], the remaining activity at 10 µM was determined as 29.7% and the remaining activity at 30 µM was found to be 7.03%. On the same counts, the results for `C=CCC1COC2(C=CC(=O)C=C2)N(c2ccccc2)C1=O` (stereo not drawn) [Example 3, 3-allyl-5-phenyl-1-oxa-5-azaspiro[5,5]undeca-7,10-diene-4,9-dione] are 30.3% and -2.03%.

On to `O=C1C=CC2(C=C1)OCC(Cc1ccccc1)C(=O)N2c1ccccc1` (stereo not drawn) [Example 6, 3-benzyl-5-phenyl-1-oxa-5-azaspiro[5,5]undeca-7,10-diene-4,9-dione], for which, in test [1], the remaining activity at 10 µM came out at 40.2% and the remaining activity at 30 µM turned out to be 6.07%. As for `O=C1C=CC2(C=C1)OCC(Cc1ccc(F)cc1)C(=O)N2c1ccccc1` (stereo not drawn) [Example 7, 3-(4-fluoro-benzyl)-5-phenyl-1-oxa-5-azaspiro[5,5]undeca-7,10-diene-4,9-dione], in test [1], the remaining activity at 10 µM is 46.7% and the remaining activity at 30 µM came out at 4.74%. As to `O=C1C=CC2(C=C1)OCC(Cc1ccc(Br)cc1)C(=O)N2c1ccccc1` (stereo not drawn) [Example 10, 3-(4-bromo-benzyl)-5-phenyl-1-oxa-5-azaspiro[5,5]undeca-7,10-diene-4,9-dione], in test [1], the remaining activity at 10 µM worked out at 27.3% and the remaining activity at 30 µM turned out to be 12.9%. For `O=C1C=CC2(C=C1)OCC(Cc1ccc(C(F)(F)F)cc1)C(=O)N2c1ccccc1` (stereo not drawn) [Example 11, 3-(4-trifluoromethyl-benzyl)-5-phenyl-1-oxa-5-azaspiro[5,5]undeca-7,10-diene-4,9-dione], in test [1], the remaining activity at 10 µM stood at 69.4% and the remaining activity at 30 µM is 22.1%. For `O=C1C=CC2(C=C1)OCC(Cc1cc(C(F)(F)F)cc(C(F)(F)F)c1)C(=O)N2c1ccccc1` (stereo not drawn) [Example 14, 3-(3,5-ditrifluoromethyl-benzyl)-5-phenyl-1-oxa-5-azaspiro[5,5]undeca-7,10-diene-4,9-dione], the half-inhibitory concentration (IC50) (as a rule, the point on the concentration scale where inhibition reaches its midpoint) in test [2] was roughly 300 nM. For `O=C1C=CC2(C=C1)OCC(Cc1ccccc1)C(=O)N2c1cccnc1` (stereo not drawn) [Example 19, 3-benzyl-5-(pyridine-3-yl)-1-oxa-5-azaspiro[5,5]undeca-7,10-diene-4,9-dione], in test [1], the remaining activity at 10 µM is 66.1% and the remaining activity at 30 µM is 8.07%.

Take `CC1COC2(C=CC(=O)C(F)=C2)N(c2ccccc2)C1=O` (stereo not drawn) [Example 22, 3-methyl-8-fluoro-5-phenyl-1-oxa-5-azaspiro[5,5]undeca-7,10-diene-4,9-dione]: in test [1], the remaining activity at 10 µM is 51.6% and the remaining activity at 30 µM came out at 2.47%. For `C=CCC1COC2(C=CC(=O)C(F)=C2)N(c2ccccc2)C1=O` (stereo not drawn) [Example 23, 3-allyl-8-fluoro-5-phenyl-1-oxa-5-azaspiro[5,5]undeca-7,10-diene-4,9-dione], in that order: 38.1% and 5.64%. Regarding `O=C1C=CC2(C=C1F)OCC(Cc1ccccc1)C(=O)N2c1ccccc1` (stereo not drawn) [Example 24, 3-benzyl-8-fluoro-5-phenyl-1-oxa-5-azaspiro[5,5]undeca-7,10-diene-4,9-dione], in test [1], the remaining activity at 10 µM came to 35.6% and the remaining activity at 30 µM was determined as 8.89%. Turning to `CC1=CC2(C=CC1=O)OCC(C)C(=O)N2c1ccccc1` (stereo not drawn) [Example 25, 3,8-dimethyl-5-phenyl-1-oxa-5-azaspiro[5,5]undeca-7,10-diene-4,9-dione], in test [1], the remaining activity at 10 µM was 20.9% and the remaining activity at 30 µM was found to be 8.15%. Regarding `CC1=CC2(C=CC1=O)OCC(Cc1ccccc1)C(=O)N2c1ccccc1` (stereo not drawn) [Example 28, 3-benzyl-8-methyl-5-phenyl-1-oxa-5-azaspiro[5,5]undeca-7,10-diene-4,9-dione], in test [1], the remaining activity at 10 µM was 55.4% and the remaining activity at 30 µM is 3.08%. For `CN1C(=O)C(Cc2ccccc2)COC12C=CC(=O)C=C2` (stereo not drawn) [Example 33, 3-benzyl-5-methyl-1-oxa-5-azaspiro[5,5]undeca-7,10-diene-4,9-dione], in that order: 50.5% and 2.08%.

Values taken from patent US10836734B2, “Spiroquinone derivative compound, production method thereof, and pharamaceutical composition for preventing or treating neurological disorders which contains same as active ingredient” (GACHON UNIVERSITY OF INDUSTRY-ACADEMIC COOPERATION …, priority 2016, dated 2020).
